Biological target: T1, mushroom tyrosinase (TYR) (Agaricus bisporus, UniProt C7FF04)
T1 construct: gene PPO3
Test: dopachrome assay with L-DOPA substrate; partial inhibition only (maximum about […]; IC20 […])
Format: biochemical

T1 sequence (C7FF04 2-392): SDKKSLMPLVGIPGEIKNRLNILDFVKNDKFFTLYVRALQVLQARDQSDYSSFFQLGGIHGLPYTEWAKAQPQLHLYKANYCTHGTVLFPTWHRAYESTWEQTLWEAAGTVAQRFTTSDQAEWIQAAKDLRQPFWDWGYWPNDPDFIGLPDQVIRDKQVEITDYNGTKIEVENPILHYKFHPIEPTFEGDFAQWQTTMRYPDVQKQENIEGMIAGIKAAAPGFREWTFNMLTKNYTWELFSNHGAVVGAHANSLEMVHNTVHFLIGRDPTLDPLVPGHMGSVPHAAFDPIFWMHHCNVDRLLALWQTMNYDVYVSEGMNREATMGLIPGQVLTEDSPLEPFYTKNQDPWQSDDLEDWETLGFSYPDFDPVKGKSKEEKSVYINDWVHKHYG

Oc1cc(O)c2c(c1)O[C@H](c1ccc(O)c(O)c1)[C@@H](O)C2 [CH, catechin hydrate]
Emax: ~25%
